Target: human plasma kallikrein (Homo sapiens (Human), UniProt P03952)
Experiment: Plasma Kallikrein Activity Assay (chromogenic substrate S2302)
Assay type: biochemical
Settings: 2 nM kallikrein, 80 μM S2302, 30° C., pH 7.8; Cheng-Prusoff
Description: Plasma Kallikrein Activity Assay.
The effect of compounds of the invention on human plasma kallikrein activity was determined using the chromogenic substrates (DiaPharma Group, Inc., West Chester, Ohio, USA). In these experiments, 2 nM kallikrein (Enzyme Research Laboratories, South Bend, Ind., USA) was incubated with 80 μM S2302 (H-D-Pro-Phe-Arg-p-nitroaniline) in the absence or presence of increasing concentrations of compounds of the invention in a final volume of 200 μL Tris-HCl buffer (200 mM NaCl; 2.5 mM CaCl2; 50 mM Tris-HCl, pH 7.8).
After incubation at 30° C., the activity of kallikrein was measured as a change in absorbance at OD 405 nm using BioTek PowerWave X340 Microplate Reader (Winooski, Vt., USA). Data were analyzed using SigmaPlot software (Systat Software, Inc., San Jose, Calif., USA) (Four Parameter Logistic Curve). Ki values for the inhibitors were determined using the Cheng-Prusoff equation (Biochem. Pharmacol. 1973, 22, 3099).

Chain of human plasma kallikrein (P03952 391-638): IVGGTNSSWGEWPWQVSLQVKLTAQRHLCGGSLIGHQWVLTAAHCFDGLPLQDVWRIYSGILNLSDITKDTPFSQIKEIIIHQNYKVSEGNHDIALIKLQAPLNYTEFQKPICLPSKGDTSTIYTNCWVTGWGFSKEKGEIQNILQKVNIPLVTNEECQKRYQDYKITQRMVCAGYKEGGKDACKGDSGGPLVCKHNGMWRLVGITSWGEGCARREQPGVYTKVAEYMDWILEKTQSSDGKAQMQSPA
Chain of human plasma kallikrein (P03952 20-390 partner): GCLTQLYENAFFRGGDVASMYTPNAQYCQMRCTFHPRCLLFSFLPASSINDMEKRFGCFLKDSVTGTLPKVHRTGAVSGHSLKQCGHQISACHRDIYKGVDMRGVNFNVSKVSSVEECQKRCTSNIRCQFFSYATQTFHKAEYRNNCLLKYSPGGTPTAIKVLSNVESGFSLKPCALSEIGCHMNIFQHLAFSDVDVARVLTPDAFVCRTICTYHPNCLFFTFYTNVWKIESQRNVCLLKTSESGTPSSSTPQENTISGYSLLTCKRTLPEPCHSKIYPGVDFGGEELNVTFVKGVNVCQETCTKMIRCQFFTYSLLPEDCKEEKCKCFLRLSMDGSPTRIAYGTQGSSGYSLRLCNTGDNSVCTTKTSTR

Molecule | Ki
N#Cc1cccc(C(N)(CCC2CC2)c2ccc(F)c(NC(=O)[C@H]3C[C@H](O)CN3C(=O)Nc3ccc(Cl)cc3)c2)c1 (stereo partly drawn) [Compound 9c, (2R,4S)-N2-(5-((+)-1-amino-1-(3-cyanophenyl)-3-cyclopropylpropyl)-2-fluorophenyl)-N1-(4-chlorophenyl)-4-hydroxypyrrolidine-1,2-dicarboxamide] | > 100 nM
N#Cc1cccc(C(N)(CCC2CC2)c2ccc(F)c(NC(=O)[C@@H]3CCCN3C(=O)Nc3ccc(Cl)cc3)c2)c1 (stereo partly drawn) [Compound 8c, (S)-N2-(5-((−)-1-amino-1-(3-cyanophenyl)-3-cyclopropylpropyl)-2-fluorophenyl)-N1-(4-chlorophenyl)pyrrolidine-1,2-dicarboxamide] | > 100 nM
O=C(Nc1cc(C(NCC2CC2)c2ccccc2)ccc1F)[C@H]1C[C@@H](O)CN1C(=O)Nc1ccc(Cl)cc1 (stereo partly drawn) [Compound 1p, (2R,4R)-N1-(4-chlorophenyl)-N2-(5-(((cyclopropylmethyl)amino)(phenyl)methyl)-2-fluorophenyl)-4-hydroxypyrrolidine-1,2-dicarboxamide] | > 100 nM
CO[C@@H]1C[C@H](C(=O)Nc2cc(C(N)(CCC3CC3)c3ccnc(C)c3)ccc2F)N(C(=O)Nc2ccc(Cl)cn2)C1 (stereo partly drawn) [Compound 46k, (2R,4R)-N2-(5-((+)-1-amino-3-cyclopropyl-1-(2-methylpyridin-4-yl)propyl)-2-fluorophenyl)-N1-(5-chloropyridin-2-yl)-4-methoxypyrrolidine-1,2-dicarboxamide] | < 50 nM
NC(CCC1CC1)(c1cccnc1)c1ccc(F)c(NC(=O)[C@H]2C[C@@H](O)CN2C(=O)Nc2ccc(Cl)cc2)c1 (stereo partly drawn) [Compound 64g, (2R,4R)-N2-(5-((+)-1-amino-3-cyclopropyl-1-(pyridin-3-yl)propyl)-2-fluorophenyl)-N1-(4-chlorophenyl)-4-hydroxypyrrolidine-1,2-dicarboxamide] | < 50 nM
CCC1(O)C[C@H](C(=O)Nc2cc(C(N)(CCC3CC3)c3ccccn3)ccc2F)N(C(=O)Nc2ccc(Cl)cn2)C1 (stereo partly drawn) [Compound 38d, (2R)-N2-(5-((+)-1-amino-3-cyclopropyl-1-(pyridin-2-yl)propyl)-2-fluorophenyl)-N1-(5-chloropyridin-2-yl)-4-ethyl-4-hydroxypyrrolidine-1,2-dicarboxamide] | < 50 nM
N#Cc1cccc([C@@H](NCC2CC2)c2ccc(F)c(NC(=O)[C@H]3C[C@@H](O)CN3C(=O)Nc3ccc(Cl)cc3)c2)c1 [Compound 60a, (2R,4R)-N1-(4-chlorophenyl)-N2-(5-((R)-(3-cyanophenyl)(cyclopropylmethylamino)methyl)-2-fluorophenyl)-4-hydroxypyrrolidine-1,2-dicarboxamide] | > 100 nM
NC(CCC1CC1)(c1ccncc1)c1ccc(F)c(NC(=O)[C@H]2C[C@@H](O)CN2C(=O)Nc2ccc(Cl)cc2)c1 (stereo partly drawn) [Compound 69a, (2R,4R)-N2-(5-((+)-1-amino-3-cyclopropyl-1-(pyridin-4-yl)propyl)-2-fluorophenyl)-N1-(4-chlorophenyl)-4-hydroxypyrrolidine-1,2-dicarboxamide] | < 50 nM
CCNC(CCC1CC1)(c1ccccc1)c1ccc(F)c(NC(=O)[C@H]2C[C@@H](OC)CN2C(=O)Nc2ccc(Cl)cn2)c1 (stereo partly drawn) [Compound 67b, (2R,4R)-N1-(5-chloropyridin-2-yl)-N2-(5-((+)-3-cyclopropyl-1-(ethylamino)-1-phenylpropyl)-2-fluorophenyl)-4-methoxypyrrolidine-1,2-dicarboxamide] | > 100 nM
CO[C@@H]1C[C@H](C(=O)Nc2cc(C(N)(CCC3CC3)c3ccncc3)ccc2F)N(C(=O)c2ccc3cc[nH]c3c2)C1 (stereo partly drawn) [Compound 82a, (2R,4R)-N-(5-(-(+)-1-amino-3-cyclopropyl-1-(pyridin-4-yl)propyl)-2-fluorophenyl)-1-(1H-indole-6-carbonyl)-4-methoxypyrrolidine-2-carboxamide] | > 100 nM
CC(C)(C)[S@@+]([O-])NC(CCC1CC1)(c1cccc(C#N)c1)c1ccc(F)c(NC(=O)[C@H]2C[C@@H](O)CN2C(=O)Nc2ccc(Cl)cc2)c1 (stereo partly drawn) [Compound 4f, (2R,4R)-N1-(4-chlorophenyl)-N2-(5-((−)-1-(3-cyanophenyl)-3-cyclopropyl-1-((R)-1,1-dimethylethylsulfinamido)propyl)-2-fluorophenyl)-4-hydroxypyrrolidine-1,2-dicarboxamide] | 50 to 100 nM
CO[C@@H]1C[C@H](C(=O)Nc2cc(C(CCC3CC3)n3ccccc3=O)ccc2F)N(C(=O)Nc2ccc(Cl)cn2)C1 (stereo partly drawn) [Compound 43m, (2R,4R)-N1-(5-chloropyridin-2-yl)-N2-(5-((+)-3-cyclopropyl-1-(2-oxopyridin-1(2H)-yl)propyl)-2-fluorophenyl)-4-methoxypyrrolidine-1,2-dicarboxamide] | 50 to 100 nM
CO[C@@H]1C[C@H](C(=O)Nc2cc(C(N)(CCC3CC3)c3ccccn3)ccc2F)N(C(=O)Nc2ccc(Cl)cn2)C1 (stereo partly drawn) [Compound 37d, (2R,4R)-N2-(5-((+)-1-amino-3-cyclopropyl-1-(pyridin-2-yl)propyl)-2-fluorophenyl)-N1-(5-chloropyridin-2-yl)-4-methoxypyrrolidine-1,2-dicarboxamide] | < 50 nM
(2R,4R)-N1-(4-chlorophenyl)-N2-(5-((+)-3-cyclopropyl-1-((S)-1,1-dimethylethylsulfinamido)-1-(pyridin-2-yl)propyl)-2-fluorophenyl)-4-hydroxypyrrolidine-1,2-dicarboxamide [Compound 61b] | < 50 nM
CO[C@@H]1C[C@H](C(=O)Nc2cc(C(CCC3CC3)(N[S@+]([O-])C(C)(C)C)c3cccc(C#N)c3)ccc2F)N(C(=O)N(C)c2ccc(Cl)cc2)C1 (stereo partly drawn) [Compound 6c, (2R,4R)-N1-(4-chlorophenyl)-N2-(5-((−)-1-(3-cyanophenyl)-3-cyclopropyl-1-((R)-1,1-dimethylethylsulfinamido)propyl)-2-fluorophenyl)-4-methoxy-N1-methylpyrrolidine-1,2-dicarboxamide] | > 100 nM
CO[C@@H]1C[C@H](C(=O)Nc2cc(C(N)(CCC3CC3)c3cccc(C#N)c3)ccc2F)N(C(=O)N(C)c2ccc(Cl)cc2)C1 (stereo partly drawn) [Compound 6e, (2R,4R)-N2-(5-((−)-1-amino-1-(3-cyanophenyl)-3-cyclopropylpropyl)-2-fluorophenyl)-N1-(4-chlorophenyl)-4-methoxy-N1-methylpyrrolidine-1,2-dicarboxamide] | > 100 nM
N#Cc1cccc(C(N)(CCC2CC2)c2ccc(F)c(NC(=O)[C@H]3C[C@@H](O)CN3C(=O)Nc3ccc([N+](=O)[O-])cc3)c2)c1 (stereo partly drawn) [Compound 25b, (2R,4R)-N2-(5-((+)-1-amino-1-(3-cyanophenyl)-3-cyclopropylpropyl)-2-fluorophenyl)-4-hydroxy-N1-(4-nitrophenyl)pyrrolidine-1,2-dicarboxamide] | > 100 nM
CCO[C@@H]1C[C@H](C(=O)Nc2cc(C(CCC3CC3)(NC(C)=O)c3ccncc3)ccc2F)N(C(=O)Nc2ccc(Cl)cn2)C1 (stereo partly drawn) [Compound 56a, (2R,4R)-N2-(5-((+)-1-acetamido-3-cyclopropyl-1-(pyridin-4-yl)propyl)-2-fluorophenyl)-N1-(5-chloropyridin-2-yl)-4-ethoxypyrrolidine-1,2-dicarboxamide] | < 50 nM
CC(=O)O[C@@H]1C[C@H](C(=O)Nc2cc(C(N)(CCC3CC3)c3cccc(C#N)c3)ccc2F)N(C(=O)Nc2ccc(Cl)cn2)C1 (stereo partly drawn) [Compound 14g, (3R,5R)-5-(5-((+)-1-amino-1-(3-cyanophenyl)-3-cyclopropylpropyl)-2-fluorophenylcarbamoyl)-1-(5-chloropyridin-2-ylcarbamoyl)pyrrolidin-3-yl acetate] | > 100 nM
NC(CCC1CC1)(c1ccncc1)c1ccc(F)c(NC(=O)[C@H]2C[C@](O)(c3ccccc3)CN2C(=O)Nc2ccc(Cl)cc2)c1 (stereo partly drawn) [Compound 40a, (2R,4S)-N2-(5-((+)-1-amino-3-cyclopropyl-1-(pyridin-4-yl)propyl)-2-fluorophenyl)-N1-(4-chlorophenyl)-4-hydroxy-4-phenylpyrrolidine-1,2-dicarboxamide] | < 50 nM
N#Cc1cccc(C(N)(CCC2CC2)c2ccc(F)c(NC(=O)[C@H]3CCCN3C(=O)Nc3ccc(Cl)cc3)c2)c1 (stereo partly drawn) [Compound 7c, (R)-N2-(5-((+)-1-amino-1-(3-cyanophenyl)-3-cyclopropylpropyl)-2-fluorophenyl)-N1-(4-chlorophenyl)pyrrolidine-1,2-dicarboxamide] | > 100 nM
CO[C@@H]1C[C@H](C(=O)Nc2cccc(C(N)(CCC3CC3)c3ccncc3)c2)N(C(=O)Nc2ccc(Cl)cn2)C1 (stereo partly drawn) [Compound 75e, (2R,4R)-N2-(3-((+)-1-amino-3-cyclopropyl-1-(pyridin-4-yl)propyl)phenyl)-N1-(5-chloropyridin-2-yl)-4-methoxypyrrolidine-1,2-dicarboxamide] | < 50 nM
NC(CCC1CC1)(c1ccncc1)c1ccc(F)c(NC(=O)[C@H]2C[C@](O)(c3ccccc3)CN2C(=O)Nc2ccc(Cl)cn2)c1 (stereo partly drawn) [Compound 39h, (2R,4S)-N2-(5-((+)-1-amino-3-cyclopropyl-1-(pyridin-4-yl)propyl)-2-fluorophenyl)-N1-(5-chloropyridin-2-yl)-4-hydroxy-4-phenylpyrrolidine-1,2-dicarboxamide] | < 50 nM
COc1ccc(NC(=O)N2C[C@H](OC)C[C@@H]2C(=O)Nc2cc(C(N)(CCC3CC3)c3cccc(C#N)c3)ccc2F)cc1 (stereo partly drawn) [Compound 16b, (2R,4R)-N2-(5-((+)-1-amino-1-(3-cyanophenyl)-3-cyclopropylpropyl)-2-fluorophenyl)-4-methoxy-N1-(4-methoxyphenyl)pyrrolidine-1,2-dicarboxamide] | > 100 nM
